This note sets out measurements from PubChem BioAssay AID1794818.

pIC50: −log10 of the molar value. Active and inactive are the calls of the source.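 The calls were made as follows: active = dose-dependent response absent in non-induced cells, with a sigmoidal fit giving a valid half-maximal concentration; inactive = the rest.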

This experiment deals with Chromaffin granule amine transporter (Homo sapiens) (UniProt P54219). Nature of the experiment: VMAT1 monoamine transport blockade – FFN206 fluorescent substrate, HEK-293 overexpressing cells, dose response (AID 1794818). The note with it: HEK-293 SLC18A1 OE, FFN206 uptake fluorescence.
Chain of Chromaffin granule amine transporter (Homo sapiens) (P54219 whole entry, looked up): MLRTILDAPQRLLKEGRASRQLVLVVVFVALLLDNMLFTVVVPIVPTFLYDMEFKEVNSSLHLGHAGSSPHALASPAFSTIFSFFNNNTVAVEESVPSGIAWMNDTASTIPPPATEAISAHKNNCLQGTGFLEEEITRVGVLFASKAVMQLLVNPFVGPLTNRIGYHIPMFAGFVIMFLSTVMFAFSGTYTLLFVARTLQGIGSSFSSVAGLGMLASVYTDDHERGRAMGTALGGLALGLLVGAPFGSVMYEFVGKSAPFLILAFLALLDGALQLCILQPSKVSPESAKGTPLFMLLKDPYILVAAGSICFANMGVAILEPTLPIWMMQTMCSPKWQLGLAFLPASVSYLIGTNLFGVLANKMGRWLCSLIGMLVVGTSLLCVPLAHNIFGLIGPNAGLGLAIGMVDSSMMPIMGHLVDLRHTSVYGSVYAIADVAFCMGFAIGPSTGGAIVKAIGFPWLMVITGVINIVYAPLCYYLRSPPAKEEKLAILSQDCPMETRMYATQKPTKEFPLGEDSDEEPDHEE

In the case of `COC(=O)[C@H]1[C@H]2C[C@@H]3c4[nH]c5cc(OC)ccc5c4CCN3C[C@H]2C[C@@H](OC(=O)c2cc(OC)c(OC)c(OC)c2)[C@@H]1OC`, the negative-log IC50 (pIC50) was 7.30. For the compound `CNc1ccc2c(CCN)cc(=O)oc2c1`, the pIC50 is 5.70. As for `COc1cc2c(cc1OC)C1CC(=O)C(CC(C)C)CN1CC2` (stereo not drawn), the outcome was inactive.

As usually defined, the pIC50 is the IC50 on a negative log10 scale, so that one unit is a factor of ten.
